# Columns and labels:
# rice = experiment: Test B flooded paddy test; format: in vivo, Oryza sativa; conditions: 1000 g ai/ha, scale 0 to 100 (0 no effect, 100 complete control)
# Description: (§1) At the same time, plants selected from these crop and weed species and also blackgrass (Alopecurus myosuroides Huds.), wheat (Triticum aestivum L.) and wild oat (Avena fatua L.) were treated with postemergence applications of test chemicals formulated in the same manner. Plants ranged in height from 2 to 18 cm (1- to 4-leaf stage) for postemergence treatments. Plant species in the flooded paddy test consisted of rice (Oryza sativa L.), small flower umbrella sedge (Cyperus difformis L.), ducksalad (Heteranthera limosa (Sw.) Willd.) and barnyardgrass (Echinochloa crus-galli (L.) Beauv.) grown to the 2-leaf stage for testing. Treated plants and controls were maintained in a greenhouse for 13 to 15 days, after which time all species were compared to controls and visually evaluated. Plant response ratings, summarized in Table B, are based on a scale of 0 to 100 where 0 is no effect and 100 is complete control. A dash (-) response means no test result.
# cocklebur = experiment: Test B pre-/postemergence herbicide test; format: in vivo, Xanthium strumarium; conditions: for Cocklebur plant response rating: postemergence
# Excerpt: (§2) Seeds selected from barnyardgrass (Echinochloa crus-galli (L.) Beauv.), Surinam grass (Urochloa decumbens (Staph) R. D. Webster, previously named Brachiaria decumbens Stapf), cocklebur (Xanthium strumarium L.), corn (Zea mays L.), large crabgrass (Digitaria sanguinalis (L.) Scop.), giant foxtail (Setaria faberi Herim.), lambsquarters (Chenopodium album L.), morningglory (Ipomoea coccinea L.), pigweed (Amaranthus retroflexus L.), rice (Oryza sativa L.) and velvetleaf (Abutilon theophrasti Medik.) were planted and treated preemergence with test chemicals formulated in a non-phytotoxic solvent mixture which included a surfactant.
# as §1
# Surinam grass = experiment: Test B pre-/postemergence herbicide test; format: in vivo, Urochloa decumbens; conditions: 125 g ai/ha
# Excerpt: as §2, §1
# barnyardgrass [1] = experiment: Test B pre-/postemergence herbicide test; format: in vivo, Echinochloa crus-galli; conditions: for Barnyardgrass plant response rating: postemergence
# Excerpt: as §2, §1
# barnyardgrass [2] = experiment: Test B flooded paddy test; format: in vivo, Echinochloa crus-galli; conditions: 1000 g ai/ha, scale 0 to 100 (0 no effect, 100 complete control)
# Description: as §1
# lambsquarters = experiment: Test B pre-/postemergence herbicide test; format: in vivo, Chenopodium album; conditions: 125 g ai/ha
# Excerpt: as §2, §1
# pigweed = experiment: Test B pre-/postemergence herbicide test; format: in vivo, Amaranthus retroflexus; conditions: 125 g ai/ha
# Excerpt: as §2, §1
# corn = experiment: Test B pre-/postemergence herbicide test; format: in vivo, Zea mays; conditions: for Corn plant response rating: postemergence
# Excerpt: as §2, §1
# wild oat = experiment: Test B postemergence herbicide test; format: in vivo, Avena fatua; conditions: 125 g ai/ha; visual rating, scale 0 (no effect) to 100 (complete control); postemergence
# Description: as §1
# giant foxtail [3] = experiment: Test B pre-/postemergence herbicide test; format: in vivo, Setaria faberi; conditions: for Foxtail, Giant plant response rating: postemergence
# Excerpt: as §2, §1
# wheat = experiment: Test B postemergence herbicide test; format: in vivo, Triticum aestivum; design: key to Wheat plant response rating: 0 = no effect, 100 = complete control
# Description: as §1
# ducksalad = experiment: Test B flooded paddy test; format: in vivo, Heteranthera limosa; conditions: 1000 g ai/ha, scale 0 to 100 (0 no effect, 100 complete control)
# Description: as §1
# velvetleaf [4] = experiment: Test B pre-/postemergence herbicide test; format: in vivo, Abutilon theophrasti; conditions: 125 g ai/ha
# Excerpt: as §2, §1
# blackgrass = experiment: Test B postemergence herbicide test; format: in vivo, Alopecurus myosuroides; conditions: postemergence
# Description: as §1
# large crabgrass [5] = experiment: Test B pre-/postemergence herbicide test; format: in vivo, Digitaria sanguinalis; conditions: for Crabgrass, Large plant response rating: postemergence
# Excerpt: as §2, §1
# [6] = system: small flower umbrella sedge; experiment: Test B flooded paddy test; format: in vivo, Cyperus difformis; conditions: 1000 g ai/ha, scale 0 to 100 (0 no effect, 100 complete control)
# Description: as §1
# morningglory [7] = experiment: Test B pre-/postemergence herbicide test; format: in vivo, Ipomoea coccinea; conditions: 125 g ai/ha
# Excerpt: as §2, §1
# velvetleaf [8] = experiment: Test A pre-/postemergence herbicide test; format: in vivo, Abutilon theophrasti
# Excerpt: (§3) Seeds of plant species selected from barnyardgrass (Echinochloa crus-galli (L.) Beauv.), downy bromegrass (Bromus tectorum L.), large crabgrass (Digitaria sanguinalis (L.) Scop.), giant foxtail (Setaria faberi Herrm.), morningglory (Ipomoea spp.), redroot pigweed (Amaranthus retroflexus L.) and velvetleaf (Abutilon theophrasti Medik.) were planted into a sandy loam soil and treated preemergence with a directed soil spray using test chemicals formulated in a non-phytotoxic solvent mixture which included a surfactant. At the same time plants selected from these species were also treated postemergence by spraying to runoff with test chemicals formulated.
# (§4) Plants ranged in height from 2 to 10 cm and were in the one- to two-leaf stage for the postemergence treatment. Treated plants and untreated controls were maintained in a greenhouse for approximately ten days, after which time all treated plants were compared to untreated controls and visually evaluated for injury. Plant response ratings, summarized in Table A, are based on a 0 to 100 scale where 0 is no effect and 100 is complete control. A dash (-) response means no test results.
# barnyardgrass [9] = experiment: Test A pre-/postemergence herbicide test; format: in vivo, Echinochloa crus-galli
# Excerpt: as §3, §4
# large crabgrass [10] = experiment: Test A pre-/postemergence herbicide test; format: in vivo, Digitaria sanguinalis
# Excerpt: as §3, §4
# giant foxtail [11] = experiment: Test A pre-/postemergence herbicide test; format: in vivo, Setaria faberi
# Excerpt: as §3, §4
# morningglory [12] = experiment: Test A pre-/postemergence herbicide test; format: in vivo, Ipomoea spp.
# Excerpt: as §3, §4
# redroot pigweed = experiment: Test A pre-/postemergence herbicide test; format: in vivo, Amaranthus retroflexus
# Excerpt: as §3, §4
# [13] = 125 g ai/ha, 0 is no effect, 100 is complete control, preemergence
# [14] = 125 g ai/ha, visual rating, scale 0 (no effect) to 100 (complete control)
# [15] = 500 g ai/ha, scale 0 to 100, 0 is no effect, 100 is complete control
# [16] = 0 is no effect, 100 is complete control, preemergence
# [17] = visual rating, scale 0 (no effect) to 100 (complete control), postemergence
# [18] = Postemergence, 500 g ai/ha, 0 to 100 scale, 0 no effect, 100 complete control
# [19] = Postemergence, 2000 g ai/ha, 0 to 100 scale, 0 no effect, 100 complete control
# [20] = Preemergence, 500 g ai/ha, visual rating, 0 to 100 scale (0 no effect, 100 complete control)
# [21] = Preemergence, 2000 g ai/ha, visual rating, 0 to 100 scale (0 no effect, 100 complete control)
# [22] = Preemergence, 2000 g ai/ha, 0 to 100 scale, 0 no effect, 100 complete control
smiles,measurement,setting,value
CCc1nn(C(C)(C)C)nc1C(=O)Nc1cccc(C(=O)N(C)C)c1 [Compound 364],Rice plant response rating,rice,90
same,"Plant response rating (0 to 100 scale), Cocklebur",cocklebur; [13],70
same,Cocklebur plant response rating,cocklebur; [14],40
same,Cocklebur plant response rating,cocklebur; [15],50
same,"Plant response rating (0 to 100 scale), Surinam Grass",Surinam grass; [16],100
same,Surinam Grass plant response rating,Surinam grass; [17],30
same,"Plant response rating (0 to 100 scale), Barnyardgrass",barnyardgrass [1]; [13],100
same,Barnyardgrass plant response rating,barnyardgrass [1]; [14],10
same,Barnyardgrass plant response rating,barnyardgrass [1]; [15],70
same,Barnyardgrass plant response rating,barnyardgrass [2],90
same,"Plant response rating (0 to 100 scale), Lambsquarters",lambsquarters; [16],100
same,Lambsquarters plant response rating,lambsquarters; [17],70
same,"Plant response rating (0 to 100 scale), Pigweed",pigweed; [16],100
same,Pigweed plant response rating,pigweed; [17],40
same,"Plant response rating (0 to 100 scale), Corn",corn; [13],80
same,Corn plant response rating,corn; [14],10
same,Corn plant response rating,corn; [15],40
same,"Oat, Wild plant response rating",wild oat,20
same,"Plant response rating (0 to 100 scale), Foxtail, Giant",giant foxtail [3]; [13],100
same,"Foxtail, Giant plant response rating",giant foxtail [3]; [14],10
same,"Foxtail, Giant plant response rating",giant foxtail [3]; [15],50
same,Wheat plant response rating,"wheat; 125 g ai/ha, visual rating, scale 0 (no effect) to 100 (complete control), postemergence",10
same,Wheat plant response rating,"wheat; 500 g ai/ha, scale 0 to 100, 0 no effect, 100 complete control, preemergence",100
same,Ducksalad plant response rating,ducksalad,100
same,"Plant response rating (0 to 100 scale), Velvetleaf",velvetleaf [4]; [16],100
same,Velvetleaf plant response rating,velvetleaf [4]; [17],20
same,Blackgrass plant response rating,blackgrass; [14],30
same,Blackgrass plant response rating,blackgrass; [15],80
same,"Plant response rating (0 to 100 scale), Crabgrass, Large",large crabgrass [5]; [13],100
same,"Crabgrass, Large plant response rating",large crabgrass [5]; [14],30
same,"Crabgrass, Large plant response rating",large crabgrass [5]; [15],70
same,"Sedge, Umbrella plant response rating",[6],100
same,"Plant response rating (0 to 100 scale), Morningglory",morningglory [7]; [16],70
same,Morningglory plant response rating,morningglory [7]; [17],20
CC(=NO)c1cccc(NC(=O)c2cc(C(F)(F)F)nn2C)c1 [Compound 103],Velvetleaf plant response rating,velvetleaf [8]; [18],10
same,"Plant response rating, Velvetleaf",velvetleaf [8]; [19],45
same,Velvetleaf plant response rating,velvetleaf [8]; [20],20
same,Velvetleaf plant response rating,velvetleaf [8]; [21],20
same,Barnyardgrass plant response rating,barnyardgrass [9]; [18],45
same,"Plant response rating, Barnyardgrass",barnyardgrass [9]; [19],75
same,Barnyardgrass plant response rating,barnyardgrass [9]; [20],55
same,Barnyardgrass plant response rating,barnyardgrass [9]; [21],85
same,"Crabgrass, Large plant response rating",large crabgrass [10]; [18],15
same,"Plant response rating, Crabgrass, Large",large crabgrass [10]; [19],30
same,"Crabgrass, Large plant response rating",large crabgrass [10]; [20],35
same,"Crabgrass, Large plant response rating",large crabgrass [10]; [21],55
same,"Foxtail, Giant plant response rating",giant foxtail [11]; [18],10
same,"Plant response rating, Foxtail, Giant",giant foxtail [11]; [19],30
same,"Foxtail, Giant plant response rating",giant foxtail [11]; [20],0
same,"Foxtail, Giant plant response rating",giant foxtail [11]; [21],15
same,Morningglory plant response rating,morningglory [12]; [18],25
same,"Plant response rating, Morningglory",morningglory [12]; [19],35
same,Morningglory plant response rating,morningglory [12]; [20],0
same,Morningglory plant response rating,morningglory [12]; [21],10
same,Pigweed plant response rating,redroot pigweed; [18],85
same,"Plant response rating, Pigweed",redroot pigweed; [19],100
same,Pigweed plant response rating,redroot pigweed; [20],80
same,Pigweed plant response rating,redroot pigweed; [21],95
Cn1nc(C(C)(C)C)cc1C(=O)Nc1cccc2c1CNC2=O [Compound 53],"Plant response rating, Velvetleaf",velvetleaf [8]; [19],0
same,Velvetleaf plant response rating,velvetleaf [8]; [20],0
same,Velvetleaf plant response rating,velvetleaf [8]; [22],0
same,"Plant response rating, Barnyardgrass",barnyardgrass [9]; [18],0
same,"Plant response rating, Barnyardgrass",barnyardgrass [9]; [19],0
same,Barnyardgrass plant response rating,barnyardgrass [9]; [20],0
same,Barnyardgrass plant response rating,barnyardgrass [9]; [22],10
same,"Plant response rating, Crabgrass, Large",large crabgrass [10]; [18],5
same,"Plant response rating, Crabgrass, Large",large crabgrass [10]; [19],0
same,"Crabgrass, Large plant response rating",large crabgrass [10]; [20],0
same,"Crabgrass, Large plant response rating",large crabgrass [10]; [22],40
same,"Plant response rating, Foxtail, Giant",giant foxtail [11]; [18],0
same,"Plant response rating, Foxtail, Giant",giant foxtail [11]; [19],0
same,"Foxtail, Giant plant response rating",giant foxtail [11]; [20],0
same,"Foxtail, Giant plant response rating",giant foxtail [11]; [22],0
same,"Plant response rating, Morningglory",morningglory [12]; [18],0
same,"Plant response rating, Morningglory",morningglory [12]; [19],0
same,Morningglory plant response rating,morningglory [12]; [20],0
same,Morningglory plant response rating,morningglory [12]; [22],0
same,"Plant response rating, Pigweed",redroot pigweed; [18],0
same,"Plant response rating, Pigweed",redroot pigweed; [19],0
same,Pigweed plant response rating,redroot pigweed; [20],30
same,Pigweed plant response rating,redroot pigweed; [22],40

# Source: US20060069132A1, “Azolecarboxamide herbicides” (priority 2004, published 2006)
